Experimental data reported in PMC6961345 (Antiviral Chemistry & Chemotherapy, 2018).
Values joined by “and” are separate entries in the source; they are usually repeats but may differ in a detail not shown here. Equal entries are not always repeated. “Also recorded” adds a separate entry of the source. Where two headings read alike, the source gives them in different places.

Tests used:
A/Anhui/1/2013 (H7N9) = experiment: microbe, parasite or virus in culture; format: cell-based, influenza A virus; details: for EC90: Influenza A virus, H7N9, 48 h
[1] = system: influenza A/Brisbane/59/2007 (H1N1) virus; format: cell-based
MDCK cells = details: 100 µM enisamium iodide, 24 h, n = 3 wells
[2] = system: viral M gene RNA (A/Brisbane/59/2007); format: cell-based, influenza A virus; details: 8, 12, 18 and 24 h
[3] = system: Differentiated NHBE cells; details: for enisamium uptake: 1000 µM, 2000 µM (Figure 2 legend)
[4] = system: influenza A/Brisbane/59/2007 (H1N1) virus; format: cell-based; remark: listed apart in the source
[5] = system: A/Vietnam/1203/2004 (H5N1); experiment: microbe, parasite or virus in culture; format: cell-based, influenza A virus; details: for EC90: Influenza A virus, H5N1, 48 h
[6] = system: influenza A and B viruses; experiment: microbe, parasite or virus in culture; format: cell-based
A/Perth/16/2009 (H3N2) = experiment: microbe, parasite or virus in culture; format: cell-based, influenza A virus; details: for EC90: two independent assays
[7] = system: Undifferentiated NHBE cells; details: 2000 µM enisamium chloride, 24 h
[8] = system: HA protein (A/Brisbane/59/2007); format: cell-based, influenza A virus
[9] = system: A/Brisbane/59/2007 (H1N1); experiment: microbe, parasite or virus in culture; format: cell-based, influenza A virus; details: for EC90: two independent assays
[10] = system: segment 7 viral, complementary, and messenger RNA (A/Brisbane/59/2007); format: cell-based, influenza A virus; details: 24 h incubation
[11] = system: influenza A/Brisbane/59/2007 (H1N1) virus; experiment: Time-of-addition experiment in dNHBE cells; format: cell-based
B/Texas/06/2011 = experiment: microbe, parasite or virus in culture; format: cell-based, influenza B virus; details: for EC90: two independent assays
[12] = system: A/Tennessee/1-560/2009 (H1N1)pdm09; experiment: microbe, parasite or virus in culture; format: cell-based, influenza A virus; details: for EC90: two independent assays
[13] = CC50 divided by EC90, dNHBE cells

C[n+]1ccc(C(=O)NCc2ccccc2)cc1 [enisamium, N-methyl-4-benzylcarbamidopyridinium]
Selectivity index (A/Anhui/1/2013 (H7N9)): 24 | EC90 (A/Anhui/1/2013 (H7N9)): 410 µM | Antiviral activity in MDCK cells (plaque number/size, virus titers) [1]: no antiviral activity was found; also recorded: did not reduce; also recorded: ineffective | Concentration of enisamium, Intracellular (mean ± SD) (MDCK cells): 27.9 ± 1.4 ng/10^6 cells | viral M gene RNA versus untreated cells [2]: lower | Intracellular concentration of enisamium (mean ± SD) ([3]; 10 µM enisamium, 24 h): 36.8 ng/10^6 cells and 36.8 ± 3.9 ng/10^6 cells | Permeability (mean ± SD) ([3]; 10 µM enisamium, 24 h): 1.40 ± 0.15% | Intracellular concentration of enisamium (mean ± SD) ([3]; 50 µM enisamium, 24 h): 213 ng/10^6 cells and 213 ± 34 ng/10^6 cells | Permeability (mean ± SD) ([3]; 50 µM enisamium, 24 h): 1.62 ± 0.26% | Intracellular concentration of enisamium (mean ± SD) ([3]; 100 µM enisamium, 24 h): 410 ng/10^6 cells and 410 ± 77 ng/10^6 cells | Permeability (mean ± SD) ([3]; 100 µM enisamium, 24 h): 1.56 ± 0.29% | Intracellular concentration of enisamium (mean ± SD) ([3]; 500 µM enisamium, 24 h): 1727 ng/10^6 cells and 1727 ± 108 ng/10^6 cells | Permeability (mean ± SD) ([3]; 500 µM enisamium, 24 h): 1.31 ± 0.08% | Intracellular concentration of enisamium (mean ± SD) ([3]; 1000 µM enisamium, 24 h): 3009 ng/10^6 cells and 3009 ± 132 ng/10^6 cells | Permeability (mean ± SD) ([3]; 1000 µM enisamium, 24 h): 1.15 ± 0.05% | Concentration of enisamium, Intracellular (mean ± SD) ([3]; 2000 µM enisamium chloride, 24 h, n = 3 wells): 10,700 ± 1900 ng/10^6 cells | Permeability, all concentrations tested ([3]; 10-1000 µM enisamium, 24 h): 1.1–1.6% | enisamium uptake ([3]; exposure 0.25 h): 482 ng/10^6 cells | enisamium uptake ([3]; exposure 24 h): 2732 ng/10^6 cells | Permeability (mean ± SD) ([3]; ratio intracellular to initial input, 2000 µM enisamium chloride, 24 h): 1.9% and 1.90 ± 0.20% | antiviral effect at lower concentrations ([4]; 100 and 500 µM, 24 h pretreatment): did not appreciably show an antiviral effect | intracellular concentration required for achieving an antiviral activity ([4]; dNHBE cells): exceeds 1885 ng/10^6 cells | Selectivity index [5]: 25 | EC90 [5]: 400 µM | EC90 ([6]; Influenza A virus, read-out: 90% effective (EC90) concentration range): 157 to 439 µM | reduction of virus titers ([6]; at certain concentrations, dNHBE cells): 100 fold | Selectivity index values (CC50 divided by EC90) ([6]; range over all viruses tested, dNHBE cells): 23- to 64 and > 20 | Selectivity index (A/Perth/16/2009 (H3N2); [13]): 30 | EC90 (A/Perth/16/2009 (H3N2); Influenza A virus, H3N2, 48 h): 287 µM | EC90 (A/Perth/16/2009 (H3N2)): 375 µM | Concentration of enisamium, Intracellular (mean ± SD) ([7]; n = 3 wells): 4110 ± 830 ng/10^6 cells | Permeability (mean ± SD) ([7]; ratio intracellular to initial input): 0.85 ± 0.21% | amount of detectable HA protein [8]: markedly decreased | Selectivity index [9, 13]: 23 | EC90 ([9]; Influenza A virus, H1N1, 48 h): 412 µM | EC90 [9]: 466 µM | inhibition of viral RNA synthesis [10]: nearly a complete inhibition | inhibition of virus replication (virus yield reduction) [11]: 2.3–2.6 log10TCID50/ml | reductions in virus titers [11]: ≥ 100 fold | virus yield reduction [11]: 1.3 log10TCID50/ml and 0.7 log10TCID50/ml | Selectivity index (B/Texas/06/2011; [13]): 64 | EC90 (B/Texas/06/2011; Influenza B virus, 48 h): 105 µM | EC90 (B/Texas/06/2011): 209 µM | Selectivity index [12, 13]: 34 | EC90 ([12]; Influenza A virus, H1N1, 48 h): 233 µM | EC90 [12]: 351 µM

CCC(CC)O[C@@H]1C=C(C(=O)O)C[C@H](N)[C@H]1NC(C)=O [oseltamivir carboxylate]
EC90 (A/Anhui/1/2013 (H7N9)): < 1 µM | inhibition of virus replication at 24 and 48 h postinfection [4]: inhibited virus replication | EC90 [5]: < 1 µM | EC90 (A/Perth/16/2009 (H3N2); Influenza A virus, H3N2, 48 h): < 1 µM | EC90 ([9]; Influenza A virus, H1N1, 48 h): < 1 µM | EC90 (B/Texas/06/2011; Influenza B virus, 48 h): < 1 µM | EC90 ([12]; Influenza A virus, H1N1, 48 h): < 1 µM
